18 compounds from patent US8673922B2, “Azaindazole compounds” (Bristol-Myers Squibb Company, priority 2010, dated 2014) can be followed below.

One assay deals with T1, Human CYP17 (Homo sapiens, UniProt P05093).
T1 construct: expressed in transfected cells; host or cells: HEK2 (sic); microsomes prepared as a high-speed pellet
T1 sequence (P05093 1-508): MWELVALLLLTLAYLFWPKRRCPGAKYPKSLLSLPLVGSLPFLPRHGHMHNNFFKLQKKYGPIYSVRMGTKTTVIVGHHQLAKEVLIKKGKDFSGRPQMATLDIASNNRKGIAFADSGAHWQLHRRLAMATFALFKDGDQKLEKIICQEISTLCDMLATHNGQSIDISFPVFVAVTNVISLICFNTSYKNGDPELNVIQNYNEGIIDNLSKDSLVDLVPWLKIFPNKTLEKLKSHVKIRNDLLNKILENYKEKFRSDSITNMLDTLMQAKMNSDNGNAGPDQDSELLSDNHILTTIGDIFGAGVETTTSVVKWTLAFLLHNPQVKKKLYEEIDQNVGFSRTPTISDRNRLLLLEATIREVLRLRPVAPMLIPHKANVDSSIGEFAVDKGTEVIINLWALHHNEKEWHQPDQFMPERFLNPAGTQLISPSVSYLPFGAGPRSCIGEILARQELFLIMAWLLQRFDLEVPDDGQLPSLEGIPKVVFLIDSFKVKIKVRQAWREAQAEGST
Put plainly: CYP17 Total SPA Assay. Format: biochemical. The following applies: microsomes from HEK2 cells stably transfected with CYP17; 3H-Pregnenolone 1 uM, NADPH 2 mM; 45 minutes at room temperature. Here is the method:
The assays were performed in U-bottom 384-well optiplates. The final assay volume was 15 μl prepared from 7.5 μl additions of microsomes (prepared as a high-speed pellet from homogenized HEK2 cells stably transfected with CYP17), substrates (3 H-Pregnenolone and NADPH) and test compounds in assay buffer (50 mM Potassium phosphate pH 7.2, 10% glycerol). The reaction was initiated by the combination of the microsomes and substrates in wells containing compound. The reaction was incubated at room temperature for 45 minutes and terminated by adding 7.5 μl of 0.2N HCl to each well. Following an incubation period of 10 minutes, anti-DHEA-coated SPA beads were added to the terminated reaction. The plate was sealed and incubated overnight with shaking at 4° C. The beads were allowed to settle in the plate for 1 hour and the plate read on a Topcount (Perkin-Elmer) plate reader.
Inhibition data were calculated by comparison to no enzyme control reactions for 100% inhibition and vehicle-only reactions for 0% inhibition. The final concentration of reagents in the assays are NADPH, 2 mM; 3H-Pregnenolone, 1 uM; microsomes, 1.25 ug/ml; Anti-DHEA-SPA beads (0.125 mg/well) in 0.5% Triton X-100 and DMSO, 0.05%. Dose response curves were generated to determine the concentration required inhibiting 50% of enzyme activity (IC50). Compounds were dissolved at 10 mM in dimethylsulfoxide (DMSO) and evaluated at eleven concentrations, each in duplicate. IC50 values were derived by non-linear regression analysis.
Table 5 below lists the IC50 values for the following examples of this invention measured in the Total CYP17 SPA Assay hereinabove.

The next assay deals with cynomolgus monkeys. Nature of the assay: 1-Day Cyno PK/PD Study. Format: in vivo, cynomolgus monkey. The following applies: plasma, single oral dose 1 mg/Kg in 80% PEG-400/water, monitored over 24 hours. How it is done:
Example 67 was formulated in 80% PEG-400/water at a volume of 1 mL/kg of monkey at a dose of 1 mg/kg. The formulation was then dosed orally at time=0 hours and blood samples were taken over a 24 hour period to monitor for drug exposure and testosterone levels. (♦) Example 67 (nM); (▪) testosterone (ng/dL).
• Animals: All procedures involving animals and their care were conducted in conformity with the guidelines that are in compliance with the Bristol-Myers Squibb Institutional Animal Care and Use Committee. Fully mature male cynomolgus monkeys (>4 yrs of age; 5-6 kg) were from an in-house colony. All the monkeys used had chronically implanted femoral vein access ports. For oral studies, all animals were fasted overnight prior to dosing and were fed 4 hr after dosing. […] The plasma fraction was immediately separated by centrifugation (14,000 rpm, 10 min, 4° C.), frozen on dry ice, and stored at −20° C. until the samples were analyzed. • Analysis of Tested Compound: Plasma samples were thawed and treated with two volumes of acetonitrile containing internal standard. After centrifugation to remove precipitated proteins, an aliquot of supernatant was analyzed by LC/MS/MS. […]

Turning to `Fc1ccc(-n2ncc3c(-c4cncnc4C(F)(F)F)ccnc32)cc1F` [Example 100, 1-(3,4-difluorophenyl)-4-(4-(trifluoromethyl)-5-pyrimidinyl)-1H-pyrazolo[3,4-b]pyridine], the concentration for half-maximal inhibition (IC50) on Human CYP17 turned out to be 320 nM.
As to `Nc1ncncc1-c1ccnc2c1cnn2-c1ccc(F)c(F)c1F` [Example 70, 5-(1-(2,3,4-trifluorophenyl)-1H-pyrazolo[3,4-b]pyridin-4-yl)pyrimidin-4-amine], the IC50 at Human CYP17 came out at 105 nM.
Regarding `Cc1ccncc1-c1ccnc2c1cnn2-c1ccc(C(F)(F)F)cn1` [Example 39, 4-(4-methylpyridin-3-yl)-1-(5-(trifluoromethyl)pyridin-2-yl)-1H-pyrazolo[3,4-b]pyridine], the IC50 on Human CYP17 came out at 100 nM.
Consider `Cc1ncncc1-c1ccnc2c1cnn2-c1ccc(F)cc1` [Example 2, 1-(4-fluorophenyl)-4-(4-methylpyrimidin-5-yl)-1H-pyrazolo[3,4-b]pyridine], for which the IC50 at Human CYP17 stood at 186 nM.
On the same count and under the same terms, next, `OC1(c2ccncc2-c2ccnc3c2cnn3-c2ccc(F)cc2)COC1` [Example 9, 3-(3-(1-(4-fluorophenyl)-1H-pyrazolo[3,4-b]pyridin-4-yl)pyridin-4-yl)oxetan-3-ol]: 5.9 nM; `Cc1ccncc1-c1ccnc2c1cnn2-c1cccc(S(N)(=O)=O)c1` [Example 80, 3-(4-(4-methylpyridin-3-yl)-1H-pyrazolo[3,4-b]pyridin-1-yl)benzenesulfonamide]: 18 nM; `Cc1ncncc1-c1ccnc2c1cnn2-c1ccc(F)cc1F` [Example 64, 1-(2,4-difluorophenyl)-4-(4-methylpyrimidin-5-yl)-1H-pyrazolo[3,4-b]pyridine]: 15 nM.
`Cc1csc(-n2ncc3c(-c4cnccc4C)ccnc32)n1` [Example 88, 4-methyl-2-(4-(4-methylpyridin-3-yl)-1H-pyrazolo[3,4-b]pyridin-1-yl)thiazole]: the IC50 on Human CYP17 stood at 622 nM.
On the same count and under the same terms, in the case of `Nc1ncncc1-c1ccnc2c1cnn2-c1ccc(F)c(Cl)c1` [Example 96, 5-(1-(3-chloro-4-fluorophenyl)-1H-pyrazolo[3,4-b]pyridin-4-yl)-4-pyrimidinamine] it was 704 nM.
The same measure, in the same setting: next, `Cc1ccncc1-c1ccnc2c1cnn2Cc1c(F)cccc1Cl` [Example 55, 1-(2-chloro-6-fluorobenzyl)-4-(4-methylpyridin-3-yl)-1H-pyrazolo[3,4-b]pyridine]: 807 nM; `Nc1ncncc1-c1ccnc2c1cnn2-c1ccccn1` [Example 72, 5-(1-(pyridin-2-yl)-1H-pyrazolo[3,4-b]pyridin-4-yl)pyrimidin-4-amine]: 525 nM; `Cc1ccncc1-c1ccnc2c1cnn2-c1ncccc1Br` [Example 46, 1-(3-bromopyridin-2-yl)-4-(4-methylpyridin-3-yl)-1H-pyrazolo[3,4-b]pyridine]: 10 nM.
Take `Fc1ccc(-n2ncc3c(-c4cncnc4OCC(F)(F)F)ccnc32)cc1` [Example 106, 1-(4-fluorophenyl)-4-(4-(2,2,2-trifluoroethoxy)pyrimidin-5-yl)-1H-pyrazolo[3,4-b]pyridine]: the half-inhibitory concentration (IC50) at Human CYP17 was found to be 123 nM.
As to `Cc1ccncc1-c1ccnc2c1cnn2CC(F)(F)F` [Example 84, 4-(4-methylpyridin-3-yl)-1-(2,2,2-trifluoroethyl)-1H-pyrazolo[3,4-b]pyridine], on Human CYP17, the IC50 turned out to be 89 nM.
The same measure, in the same setting: in the case of `Nc1ncncc1-c1ccnc2c1cnn2-c1ccc(F)cc1` [Example 8, 5-(1-(4-fluorophenyl)-1H-pyrazolo[3,4-b]pyridin-4-yl)pyrimidin-4-amine] it was 23 nM.
As to `Cc1ccncc1-c1ccnc2c1cnn2C1CCOCC1` [Example 33, 4-(4-methylpyridin-3-yl)-1-(tetrahydro-2H-pyran-4-yl)-1H-pyrazolo[3,4-b]pyridine], at Human CYP17, the IC50 was 393 nM.
For the compound `Fc1ccc(-n2ncc3c(-c4cncnc4C(F)(F)F)ccnc32)c(F)c1` [Example 93, 1-(2,4-difluorophenyl)-4-(4-(trifluoromethyl)pyrimidin-5-yl)-1H-pyrazolo[3,4-b]pyridine], at Human CYP17, the half-inhibitory concentration (IC50) came to 159 nM.
`Nc1ncncc1-c1ccnc2c1cnn2-c1ccc(F)cc1F` [Example 67, 5-(1-(2,4-difluorophenyl)-1H-pyrazolo[3,4-b]pyridin-4-yl)pyrimidin-4-amine] gave a testosterone levels in the assay with cynomolgus monkeys of approximately 30 ng/dL. Besides, the IC50 at Human CYP17 is 5.8 nM.

For orientation: IC50 means the concentration at which inhibition is half-maximal.
